Assay results as given in paper PMC11678116 (Molecules, 2024).
“And” between values parts separate entries of the source, which are not always exact repeats. Equal entries are not always repeated. Where two headings read alike, the source gives them in different places. Marks after values point to notes of the source that are not given here.

What was measured:
[1] = system: P. falciparum Dd2 (PfDd2); details: multi-drug resistant strain; cited from earlier work
[2] = system: P. falciparum 3D7 (Pf3D7); details: CQ-sensitive strain; cited from earlier work
[3] = system: P. falciparum 3D7 (Pf3D7); experiment: In vitro drug sensitivity assay (HRP2-ELISA) against erythrocytic stage, CQ-sensitive strain; type: cell-based; details: Plasmodium falciparum, mean ± SD (n ≥ 2)
Procedure: Briefly, 96-well plates were pre-coated with the tested compounds in a three-fold dilution before ring-stage parasites were added to the complete culture medium at a haematocrit of 1.5% and a parasitaemia of 0.05%. […] All compounds were evaluated in duplicate in at least two independent experiments. The IC50 was determined by non-linear regression analysis of log concentration-response curves using the drc-package v0.9.0 of R v2.6.1 [42].

[4] = system: P. falciparum Dd2 (PfDd2); experiment: microbe, parasite or virus in culture; type: cell-based; details: Plasmodium falciparum, DD2, read-out: IC50 PfDd2
Procedure: The resistance index (RI), which represents a ratio between IC50 obtained against PfDd2 and Pf3D7, was also calculated (Table 3).
Briefly, 96-well plates were pre-coated with the tested compounds in a three-fold dilution before ring-stage parasites were added to the complete culture medium at a haematocrit of 1.5% and a parasitaemia of 0.05%. After three days of incubation at 37 °C, 5% CO2, and 5% oxygen, plates were frozen until analysed by HRP2-ELISA. All compounds were evaluated in duplicate in at least two independent experiments. The IC50 was determined by non-linear regression analysis of log concentration-response curves using the drc-package v0.9.0 of R v2.6.1 [42].

[5] = system: HepG2 cells; experiment: In vitro cytotoxicity, neutral red assay; type: cell-based; details: Homo sapiens, HepG2, 24 h, one day of incubation, mean ± SD (n ≥ 2)
Procedure: The cytotoxicity of the second-generation harmiquins 33–45 was assessed against HepG2 cells to determine the selectivity of the tested compounds towards P. falciparum in comparison to mammalian cells (Table 4).
Cytotoxicity against a human cell line (HepG2) was evaluated using the neutral red assay with minor modifications. In brief, human cells were seeded to a 96-well plate in a complete culture medium; on the following day, a serial dilution of the respective compound was added. After one day of incubation, cytotoxicity was evaluated by the addition of neutral red, subsequent lysis of cells, and measurement of absorbance (540 nm) in a plate reader (CLARIOstar, BMG Labtech). The IC50 was determined similarly to the in vitro drug assay against P. falciparum. To assess the safety of a compound, SI was calculated as the fractional ratio between the IC50s for HepG2 and P. falciparum 3D7 strain.

[6] = target: T1, human serum albumin (HSA) (Homo sapiens, UniProt P02768); experiment: Fluorimetric titration with HSA
Procedure: (§3) The electronic absorption (UV/vis) spectra were recorded on a Varian Cary 100 Bio spectrophotometer (Varian, Inc., Palo Alto, CA, USA). Fluorescence measurements were performed on a Varian Cary Eclipse fluorimeter (Varian, Inc., CA, USA), taking care that the absorbance of a sample at the excitation wavelength was > 0.05 to avoid any impact of the inner filter effect.
(§4) Human serum albumin was purchased from Sigma-Aldrich (Sigma-Aldrich, St. Louis, MO, USA) supplier, and dissolved in milli Q (MQ) water.
(§5) Fluorimetric titration experiments were performed by adding aliquots of the polynucleotide stock solution into the solution of the studied dye. […] In both sets of experiments (fluorimetric and CD titrations), a buffer background was subtracted from each spectrum. Every reported spectrophotometric titration was the average of at least two measurements.

[7] = system: calf thymus (ct)-DNA; type: binding; details: for log Ks ctDNA: pH 7; for ΔInt ctDNA: ΔInt = Int(100% complex)/Int0
From the text: (§1) The titration data are processed by a non-linear fitting procedure to the Scatchard equation [44, 45, 46], yielding binding constants (Supplemental Information, Figures S5–S12, Table 6).
(§2) Polynucleotides were purchased as noted: calf thymus (ct) DNA, poly dAdT–poly dAdT, poly dGdC–poly dGdC, and poly A–poly U (Sigma Aldrich, St. Louis, MO, USA), and dissolved in sodium cacodylate buffer (I = 0.05 M, pH = 7.0).

[8] = target: poly(dAdT)2; type: binding
From the text: as §1, §2

[9] = target: poly A–poly U (pApU, ds-RNA); experiment: Fluorimetric titration with poly A–poly U; type: binding
Procedure: The strong emission and favourable Stokes shift of emission maxima allowed the performance of fluorimetric titrations with ds-DNA/RNA at very low (5 µM) concentrations of investigated compounds.
as §1, §2

[10] = target: T1, human serum albumin (HSA); experiment: biochemical
Procedure: as §3, §4, §5

T1 sequence (P02768 25-609): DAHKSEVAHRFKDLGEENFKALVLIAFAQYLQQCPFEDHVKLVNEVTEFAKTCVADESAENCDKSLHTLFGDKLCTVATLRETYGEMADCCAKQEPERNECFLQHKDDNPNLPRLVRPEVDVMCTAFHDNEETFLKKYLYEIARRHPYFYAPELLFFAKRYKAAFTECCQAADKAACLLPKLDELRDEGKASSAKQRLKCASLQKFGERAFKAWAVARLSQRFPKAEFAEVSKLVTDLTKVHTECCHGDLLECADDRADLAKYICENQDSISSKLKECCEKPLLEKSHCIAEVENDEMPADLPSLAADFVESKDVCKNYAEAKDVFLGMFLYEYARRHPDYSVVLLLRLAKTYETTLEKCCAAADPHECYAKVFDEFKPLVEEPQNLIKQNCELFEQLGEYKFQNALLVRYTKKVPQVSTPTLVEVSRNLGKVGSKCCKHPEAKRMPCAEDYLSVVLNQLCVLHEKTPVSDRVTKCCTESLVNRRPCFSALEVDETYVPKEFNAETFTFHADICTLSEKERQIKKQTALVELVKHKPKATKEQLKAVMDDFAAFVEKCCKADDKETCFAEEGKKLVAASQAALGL

Row | SMILES | IC50 [3] | IC50 [4] | IC50 [5] | further results
1 | COc1ccc2c3ccnc(C)c3n(CCNC(=O)CNc3ccnc4cc(Cl)ccc34)c2c1 [A] | – | – | – | IC50 [1]: 16.2 ± 2.83 nM; IC50 [2]: 2 ± 0.3 nM
2 | COc1ccc2c3ccnc(C)c3n(Cc3cn(CCNc4ccnc5cc(Cl)ccc45)nn3)c2c1 [B] | – | – | – | IC50 [1]: 204 ± 9.89 nM; IC50 [2]: 11.6 ± 3.8 nM
3 | CCOc1ccc2c3ccnc(C)c3n(CCNC(=O)CNc3ccnc4cc(Cl)ccc34)c2c1 [Compound 33, 2-((7-Chloroquinolin-4-yl)amino)-N-(2-(7-ethoxy-1-methyl-9H-pyrido[3,4-b]indol-9-yl)ethyl)acetamide] | 4.7 ± 1.3 nM | 6.5 ± 2.5 nM | – | –
4 | CCCOc1ccc2c3ccnc(C)c3n(CCNC(=O)CNc3ccnc4cc(Cl)ccc34)c2c1 [Compound 34, 2-((7-Chloroquinolin-4-yl)amino)-N-(2-(1-methyl-7-propoxy-9H-pyrido[3,4-b]indol-9-yl)ethyl)acetamide] | 11 ± 1.5 nM | 17.7 ± 8.7 nM | 18.2 ± 1.8 µM | ΔInt HSA [6]: (62.8); log Ks toward GC-containing DNAs [7]: 6–7; log Ks ctDNA [7]: 7.3; ΔInt ctDNA [7]: (0.57); log Ks toward AT-DNA and AU-RNA [8]: 4–5; log Ks p(dA-dT)2 ([8]; pH 7): 5.2; ΔInt p(dA-dT)2 ([8]; ΔInt = Int(100% complex)/Int0): (2.28); log Ks pApU ([9]; estimation only, almost linear emission change, pH 7.0, sodium cacodylate buffer, I = 0.05 M): >4 ^c; Kd [10]: 0.794 µM
5 | Cc1nccc2c3ccc(OC(C)C)cc3n(CCNC(=O)CNc3ccnc4cc(Cl)ccc34)c12 [Compound 35, 2-((7-Chloroquinolin-4-yl)amino)-N-(2-(7-isopropoxy-1-methyl-9H-pyrido[3,4-b]indol-9-yl)ethyl)acetamide] | 28.1 ± 0.5 nM | 26.5 ± 4.5 nM | 127 ± 31.5 µM | –
6 | COc1ccc2c(c1)c1ccnc(C)c1n2CCNC(=O)CNc1ccnc2cc(Cl)ccc12 [Compound 36, 2-((7-Chloroquinolin-4-yl)amino)-N-(2-(6-methoxy-1-methyl-9H-pyrido[3,4-b]indol-9-yl)ethyl)acetamide] | 16.6 ± 2.1 nM | 36.7 ± 4 nM | 24.3 ± 3.4 µM | –
7 | CCCOc1ccc2c(c1)c1ccnc(C)c1n2CCNC(=O)CNc1ccnc2cc(Cl)ccc12 [Compound 37, 2-((7-Chloroquinolin-4-yl)amino)-N-(2-(1-methyl-6-propoxy-9H-pyrido[3,4-b]indol-9-yl)ethyl)acetamide] | 4.6 ± 0.6 nM | 10.5 ± 0.4 nM | 35.8 ± 4.3 µM | –
8 | CCOc1ccc2c3ccnc(C)c3n(Cc3cn(CCNc4ccnc5cc(Cl)ccc45)nn3)c2c1 [Compound 38, 7-Chloro-N-(2-(4-((7-ethoxy-1-methyl-9H-pyrido[3,4-b]indol-9-yl)methyl)-1H-1,2,3-triazol-1-yl)ethyl)quinolin-4-amine] | 18.7 ± 4.7 nM | 82.2 ± 2.2 nM | 29.6 ± 6 µM | –
9 | CCCOc1ccc2c3ccnc(C)c3n(Cc3cn(CCNc4ccnc5cc(Cl)ccc45)nn3)c2c1 [Compound 39, 7-Chloro-N-(2-(4-((1-methyl-7-propoxy-9H-pyrido[3,4-b]indol-9-yl)methyl)-1H-1,2,3-triazol-1-yl)ethyl)quinolin-4-amine] | 6.8 ± 4 nM | 20.1 ± 2.2 nM | 14.4 ± 1.7 µM | log Ks toward GC-containing DNAs [7]: 4–5; log Ks ctDNA [7]: 5.5; ΔInt ctDNA [7]: (0.59); emission response to AT-DNA [8]: completely insensitive; emission response to AU-RNA ([9]; compound 5 µM, fluorimetric titration): completely insensitive; Kd [10]: 6.31 µM and 7.94 µM
10 | Cc1nccc2c3ccc(OC(C)C)cc3n(Cc3cn(CCNc4ccnc5cc(Cl)ccc45)nn3)c12 [Compound 40, 7-Chloro-N-(2-(4-((7-isopropoxy-1-methyl-9H-pyrido[3,4-b]indol-9-yl)methyl)-1H-1,2,3-triazol-1-yl)ethyl)quinolin-4-amine] | 25 ± 3.3 nM | 33.3 ± 1.6 nM | 26.9 ± 0.9 µM | –
11 | COc1ccc2c(c1)c1ccnc(C)c1n2Cc1cn(CCNc2ccnc3cc(Cl)ccc23)nn1 [Compound 41, 7-Chloro-N-(2-(4-((6-methoxy-1-methyl-9H-pyrido[3,4-b]indol-9-yl)methyl)-1H-1,2,3-triazol-1-yl)ethyl)quinolin-4-amine] | 18.5 ± 6.1 nM | 98.7 ± 36.3 nM | 32.1 ± 1.1 µM | –
12 | CCCOc1ccc2c(c1)c1ccnc(C)c1n2Cc1cn(CCNc2ccnc3cc(Cl)ccc23)nn1 [Compound 42, 7-Chloro-N-(2-(4-((1-methyl-6-propoxy-9H-pyrido[3,4-b]indol-9-yl)methyl)-1H-1,2,3-triazol-1-yl)ethyl)quinolin-4-amine] | 7.6 ± 0.2 nM | 15.5 ± 1.7 nM | 20.3 ± 1.6 µM | –
13 | CCc1nccc2c3ccccc3n(Cc3cn(CCNc4ccnc5cc(Cl)ccc45)nn3)c12 [Compound 43, 7-Chloro-N-(2-(4-((1-ethyl-9H-pyrido[3,4-b]indol-9-yl)methyl)-1H-1,2,3-triazol-1-yl)ethyl)quinolin-4-amine] | 88.4 ± 0.5 nM | 204 ± 73.2 nM | 68.2 ± 6.1 µM | –
14 | CCCc1nccc2c3ccccc3n(Cc3cn(CCNc4ccnc5cc(Cl)ccc45)nn3)c12 [Compound 44, 7-Chloro-N-(2-(4-((1-propyl-9H-pyrido[3,4-b]indol-9-yl)methyl)-1H-1,2,3-triazol-1-yl)ethyl)quinolin-4-amine] | 96.9 ± 1.5 nM | 214 ± 71.8 nM | 68.9 ± 4.3 µM | –
15 | CC(C)c1nccc2c3ccccc3n(Cc3cn(CCNc4ccnc5cc(Cl)ccc45)nn3)c12 [Compound 45, 7-Chloro-N-(2-(4-((1-isopropyl-9H-pyrido[3,4-b]indol-9-yl)methyl)-1H-1,2,3-triazol-1-yl)ethyl)quinolin-4-amine] | 15.9 ± 11.5 nM | 18.8 ± 9.1 nM | 128 ± 2.7 µM | –
